# According to patent US8415469B2, “Compounds and methods for kinase modulation, and indications therefor” (Plexxikon Inc., priority 2005, dated 2013):
# Tests used:
# Format in all cases: biochemical
# [1] = target: T1, B-Raf (Homo sapiens, UniProt P15056); assay: AlphaScreen kinase assay, B-Raf; conditions: read-out: IC50, activity toward kinase B-Raf
# T1 construct: purchased Upstate Biotechnology
# [2] = target: T2, B-Raf V600E (Homo sapiens, UniProt P15056, V600E); assay: AlphaScreen kinase assay, B-Raf V600E; conditions: read-out: IC50, activity toward kinase B-Raf V600E
# T2 construct: P4254. pFastBacBD-CDC37 BRAF D437-K722-X, V600E; His6 with pFastBac HT leader (TEV site) (N); made in house; host or cells: Sf9 (baculovirus; chaperone CDC37 co-expressed)
# T2 sequence (P15056 with tags, fused parts or gaps V600E): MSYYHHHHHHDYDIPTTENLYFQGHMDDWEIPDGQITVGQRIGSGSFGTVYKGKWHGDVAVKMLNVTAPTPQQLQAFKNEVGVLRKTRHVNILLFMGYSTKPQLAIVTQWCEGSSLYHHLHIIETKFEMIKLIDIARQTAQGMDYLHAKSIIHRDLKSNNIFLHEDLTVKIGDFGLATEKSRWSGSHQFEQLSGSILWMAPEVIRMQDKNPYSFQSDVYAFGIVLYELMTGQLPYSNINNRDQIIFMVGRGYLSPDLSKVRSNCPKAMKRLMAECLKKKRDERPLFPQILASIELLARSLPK
# [3] = target: T3, c-Raf-1 (Homo sapiens, UniProt P04049); assay: AlphaScreen kinase assay, c-Raf-1; conditions: read-out: IC50, activity toward kinase c-Raf-1
# T3 construct: purchased Upstate Biotechnology
# [4] = target: T4, Fak (Homo sapiens, UniProt Q05397); assay: AlphaScreen kinase assay, Fak; conditions: read-out: IC50, activity toward kinase Fak
# T4 construct: P1358.pFastBacHtb FAK S411-Q686-X; His6 with pFastBacHTb leader (TEV site) (N); made in house; host or cells: Sf9 (baculovirus)
# T4 sequence (Q05397 411-686): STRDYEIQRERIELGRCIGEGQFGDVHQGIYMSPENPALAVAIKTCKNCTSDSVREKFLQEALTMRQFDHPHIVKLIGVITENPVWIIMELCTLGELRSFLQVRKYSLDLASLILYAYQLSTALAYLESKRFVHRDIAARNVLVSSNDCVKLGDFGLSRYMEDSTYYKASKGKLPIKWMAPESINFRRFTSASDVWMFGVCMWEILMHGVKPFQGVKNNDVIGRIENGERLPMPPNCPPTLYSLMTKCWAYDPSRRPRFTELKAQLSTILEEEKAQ
# [5] = target: T5, FGFR1 (Homo sapiens, UniProt P11362, C488A/C584S); assay: AlphaScreen kinase assay, FGFR1; conditions: read-out: IC50, activity toward kinase FGFR
# T5 construct: P1351.pET N6 BI-PTP FGFR A458-E765-X C488A, C584S; made in house; host or cells: E. coli (PTP1B co-expressed)
# [6] = target: T6, Fms (Homo sapiens, UniProt P07333); assay: AlphaScreen kinase assay, Fms; conditions: read-out: IC50, activity toward kinase Fms
# T6 construct: purchased Upstate Biotechnology
# T6 sequence (P07333 20-972): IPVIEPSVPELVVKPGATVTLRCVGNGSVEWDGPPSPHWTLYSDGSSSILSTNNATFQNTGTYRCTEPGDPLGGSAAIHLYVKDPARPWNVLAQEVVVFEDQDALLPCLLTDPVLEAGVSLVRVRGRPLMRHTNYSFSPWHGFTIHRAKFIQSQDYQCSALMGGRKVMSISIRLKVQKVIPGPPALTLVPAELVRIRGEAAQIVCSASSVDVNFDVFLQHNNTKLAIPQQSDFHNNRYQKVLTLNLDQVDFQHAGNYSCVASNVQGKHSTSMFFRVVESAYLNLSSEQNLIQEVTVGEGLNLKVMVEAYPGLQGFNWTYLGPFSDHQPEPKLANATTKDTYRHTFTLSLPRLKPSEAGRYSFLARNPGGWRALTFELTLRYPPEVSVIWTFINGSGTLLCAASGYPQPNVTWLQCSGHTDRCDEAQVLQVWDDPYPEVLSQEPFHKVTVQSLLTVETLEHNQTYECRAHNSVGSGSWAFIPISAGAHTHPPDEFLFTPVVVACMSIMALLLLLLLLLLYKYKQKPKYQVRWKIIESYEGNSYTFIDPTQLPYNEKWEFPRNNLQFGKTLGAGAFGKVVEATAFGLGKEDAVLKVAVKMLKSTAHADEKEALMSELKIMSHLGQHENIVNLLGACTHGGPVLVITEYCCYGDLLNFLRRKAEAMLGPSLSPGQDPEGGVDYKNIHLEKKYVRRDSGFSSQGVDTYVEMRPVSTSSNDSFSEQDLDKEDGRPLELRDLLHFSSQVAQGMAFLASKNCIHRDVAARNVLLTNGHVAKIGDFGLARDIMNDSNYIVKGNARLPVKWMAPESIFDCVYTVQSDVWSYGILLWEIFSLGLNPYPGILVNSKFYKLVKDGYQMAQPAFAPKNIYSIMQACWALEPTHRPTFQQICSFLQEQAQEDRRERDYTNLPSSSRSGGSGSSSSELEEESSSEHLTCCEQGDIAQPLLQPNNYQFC
# [7] = target: T7, Jnk1 (Homo sapiens, UniProt P45983); assay: AlphaScreen kinase assay, Jnk1; conditions: read-out: IC50, activity toward kinase Jnk1
# T7 construct: purchased Upstate Biotechnology
# [8] = target: T8, Kit (Homo sapiens, UniProt P10721); assay: AlphaScreen kinase assay, Kit; conditions: read-out: IC50, activity toward kinase Kit
# T8 construct: P1332.N6 BI PTP KIT M552-K948-X COD; His6 (N); made in house; host or cells: E. coli (PTP1B co-expressed)
# T8 sequence (P10721 with tags, fused parts or gaps): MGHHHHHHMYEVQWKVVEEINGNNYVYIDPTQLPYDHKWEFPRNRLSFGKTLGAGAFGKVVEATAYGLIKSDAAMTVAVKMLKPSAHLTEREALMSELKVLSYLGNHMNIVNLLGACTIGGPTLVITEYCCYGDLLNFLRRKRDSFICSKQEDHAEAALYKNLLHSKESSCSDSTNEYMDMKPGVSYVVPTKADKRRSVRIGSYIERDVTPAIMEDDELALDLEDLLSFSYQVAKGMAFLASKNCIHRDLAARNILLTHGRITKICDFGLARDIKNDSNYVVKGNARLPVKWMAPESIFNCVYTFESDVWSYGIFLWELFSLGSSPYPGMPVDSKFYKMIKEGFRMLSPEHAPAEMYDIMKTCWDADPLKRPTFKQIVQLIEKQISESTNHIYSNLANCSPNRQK
# [9] = target: T9, Pyk2 (Homo sapiens, UniProt Q14289); assay: AlphaScreen kinase assay, Pyk2; conditions: read-out: IC50, activity toward kinase Pyk2
# T9 construct: purchased Upstate Biotechnology
# [10] = target: T10, Src (Homo sapiens, UniProt P12931); assay: AlphaScreen kinase assay, Src; conditions: read-out: IC50, activity toward kinase Src
# T10 construct: P1144. pET-N6 BI-PTP SRC V86-L536-X; made in house
# [11] = target: Gsk3β (Homo sapiens, UniProt P49841); assay: AlphaScreen kinase assay, Gsk3β; conditions: read-out: IC50, activity toward kinase Gsk3β
# Method in brief: (§1)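 Biotinylated peptide substrate is phosphorylated by kinase; anti-phosphopeptide antibody on acceptor beads and streptavidin donor beads bring emission when substrate is phosphorylated. Inhibition lowers acceptor signal. Compounds from 20 mM DMSO stock tested as 8-point 1:3 serial dilutions.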
# [12] = target: MAP4K4 (Homo sapiens, UniProt O95819); assay: AlphaScreen kinase assay, MAP4K4; conditions: read-out: IC50, activity toward kinase MAP4K4
# MAP4K4, sequence (O95819 whole entry): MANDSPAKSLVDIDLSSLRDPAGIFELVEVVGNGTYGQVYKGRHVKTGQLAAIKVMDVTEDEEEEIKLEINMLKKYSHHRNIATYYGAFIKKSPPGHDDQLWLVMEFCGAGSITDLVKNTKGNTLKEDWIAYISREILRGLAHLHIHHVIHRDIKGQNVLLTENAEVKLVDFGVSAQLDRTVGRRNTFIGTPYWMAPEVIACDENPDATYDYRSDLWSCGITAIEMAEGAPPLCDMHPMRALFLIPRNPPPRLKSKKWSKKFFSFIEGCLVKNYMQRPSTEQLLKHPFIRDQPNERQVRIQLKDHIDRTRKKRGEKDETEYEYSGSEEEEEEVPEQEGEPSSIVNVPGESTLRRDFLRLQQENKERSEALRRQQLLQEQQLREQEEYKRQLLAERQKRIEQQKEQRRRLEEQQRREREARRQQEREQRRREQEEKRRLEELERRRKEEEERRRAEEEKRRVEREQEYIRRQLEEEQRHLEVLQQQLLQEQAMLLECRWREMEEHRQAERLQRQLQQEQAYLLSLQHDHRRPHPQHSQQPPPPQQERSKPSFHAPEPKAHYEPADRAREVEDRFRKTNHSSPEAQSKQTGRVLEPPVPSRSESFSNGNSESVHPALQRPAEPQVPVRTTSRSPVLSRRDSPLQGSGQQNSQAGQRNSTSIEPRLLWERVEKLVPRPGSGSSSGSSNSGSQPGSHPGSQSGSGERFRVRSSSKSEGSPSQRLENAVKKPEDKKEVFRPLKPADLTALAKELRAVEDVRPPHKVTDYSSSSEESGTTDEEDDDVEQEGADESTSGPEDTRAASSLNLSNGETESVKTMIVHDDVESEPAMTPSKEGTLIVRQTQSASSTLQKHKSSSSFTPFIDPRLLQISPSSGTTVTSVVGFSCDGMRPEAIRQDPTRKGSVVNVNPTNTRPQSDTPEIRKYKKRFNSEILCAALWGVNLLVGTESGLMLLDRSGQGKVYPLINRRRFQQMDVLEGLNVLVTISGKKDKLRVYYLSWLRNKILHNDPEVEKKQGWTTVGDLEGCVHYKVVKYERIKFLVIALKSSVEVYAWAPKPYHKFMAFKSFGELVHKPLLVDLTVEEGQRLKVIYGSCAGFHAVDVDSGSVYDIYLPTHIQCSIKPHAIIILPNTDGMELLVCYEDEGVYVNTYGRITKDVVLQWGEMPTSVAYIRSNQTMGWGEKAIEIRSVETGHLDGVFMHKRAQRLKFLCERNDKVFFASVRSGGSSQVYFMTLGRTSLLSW
# [13] = target: IGF1R (Homo sapiens, UniProt P08069); assay: AlphaScreen kinase assay, IGF1R; conditions: read-out: IC50, activity toward kinase IGF1R
# IGF1R, sequence (P08069 31-1367): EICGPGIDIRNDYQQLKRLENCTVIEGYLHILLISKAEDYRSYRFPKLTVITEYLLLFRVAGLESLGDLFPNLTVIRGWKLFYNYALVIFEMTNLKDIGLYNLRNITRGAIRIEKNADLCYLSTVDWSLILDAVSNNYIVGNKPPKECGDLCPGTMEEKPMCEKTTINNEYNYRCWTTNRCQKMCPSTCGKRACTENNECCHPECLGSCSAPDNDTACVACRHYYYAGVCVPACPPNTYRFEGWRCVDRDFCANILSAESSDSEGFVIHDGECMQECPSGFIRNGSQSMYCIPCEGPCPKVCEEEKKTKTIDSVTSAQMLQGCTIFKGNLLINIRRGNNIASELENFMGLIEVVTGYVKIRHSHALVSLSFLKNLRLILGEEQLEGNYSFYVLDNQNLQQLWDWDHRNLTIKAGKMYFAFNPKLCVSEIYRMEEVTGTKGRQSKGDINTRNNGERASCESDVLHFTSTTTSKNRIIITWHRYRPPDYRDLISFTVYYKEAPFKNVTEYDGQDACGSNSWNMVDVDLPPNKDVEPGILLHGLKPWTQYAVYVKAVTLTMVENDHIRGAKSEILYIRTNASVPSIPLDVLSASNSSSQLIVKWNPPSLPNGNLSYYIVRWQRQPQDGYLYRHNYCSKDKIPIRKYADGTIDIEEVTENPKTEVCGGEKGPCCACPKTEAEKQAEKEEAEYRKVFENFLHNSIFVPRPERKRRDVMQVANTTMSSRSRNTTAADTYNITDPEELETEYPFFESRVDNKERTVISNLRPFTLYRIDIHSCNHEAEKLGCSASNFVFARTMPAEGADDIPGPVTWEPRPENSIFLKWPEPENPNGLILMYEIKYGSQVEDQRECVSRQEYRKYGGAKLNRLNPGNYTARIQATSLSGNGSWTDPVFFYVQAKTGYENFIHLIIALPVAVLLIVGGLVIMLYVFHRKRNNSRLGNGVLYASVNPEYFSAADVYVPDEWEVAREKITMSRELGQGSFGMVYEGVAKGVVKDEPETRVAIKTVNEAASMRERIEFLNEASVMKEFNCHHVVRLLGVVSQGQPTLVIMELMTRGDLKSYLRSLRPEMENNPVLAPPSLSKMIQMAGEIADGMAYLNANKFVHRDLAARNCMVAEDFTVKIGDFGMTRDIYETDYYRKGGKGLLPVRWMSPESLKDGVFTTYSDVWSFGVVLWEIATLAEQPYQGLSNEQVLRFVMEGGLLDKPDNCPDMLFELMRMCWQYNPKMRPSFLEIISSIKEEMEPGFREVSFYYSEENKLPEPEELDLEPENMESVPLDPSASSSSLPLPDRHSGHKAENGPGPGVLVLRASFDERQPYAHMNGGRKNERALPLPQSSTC
# [14] = target: T11, Btk (Homo sapiens, UniProt Q06187); assay: Z'-Lyte FRET kinase assay (Invitrogen), Btk; conditions: read-out: IC50, activity toward kinase Btk
# T11 construct: purchased Invitrogen (assay run by Invitrogen)
# [15] = target: T12, Jnk2 (Homo sapiens, UniProt P45984); assay: AlphaScreen kinase assay, Jnk2; conditions: read-out: IC50, activity toward kinase Jnk2
# T12 construct: purchased Roche Protein Expression Group (Indianapolis, IN)
# T12 sequence (P45984 whole entry): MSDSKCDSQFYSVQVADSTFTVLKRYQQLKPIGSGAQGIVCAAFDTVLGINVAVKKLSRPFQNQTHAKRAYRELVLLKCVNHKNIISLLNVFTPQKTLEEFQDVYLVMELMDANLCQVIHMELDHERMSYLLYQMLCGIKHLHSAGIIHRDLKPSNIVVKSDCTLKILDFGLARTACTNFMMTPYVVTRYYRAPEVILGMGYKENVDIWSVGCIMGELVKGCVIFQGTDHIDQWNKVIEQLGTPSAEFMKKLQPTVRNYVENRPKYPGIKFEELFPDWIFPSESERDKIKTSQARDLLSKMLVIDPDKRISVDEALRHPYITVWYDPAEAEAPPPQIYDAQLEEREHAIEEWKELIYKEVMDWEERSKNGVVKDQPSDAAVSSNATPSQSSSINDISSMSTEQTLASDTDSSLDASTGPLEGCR
# Method in brief: as §1
# [16] = target: T13, Jnk3 (Homo sapiens, UniProt P53779); assay: AlphaScreen kinase assay, Jnk3; conditions: read-out: IC50, activity toward kinase Jnk3
# T13 construct: purchased Upstate Biotechnology
# [17] = target: T14, MAP2K1 (Homo sapiens, UniProt Q02750); assay: Z'-Lyte FRET kinase assay (Invitrogen), MAP2K1; conditions: read-out: IC50, activity toward kinase MAP2K1
# T14 construct: purchased Invitrogen (assay run by Invitrogen)
# [18] = target: T15, Ret (Homo sapiens, UniProt P07949); assay: AlphaScreen kinase assay, Ret; conditions: read-out: IC50, activity toward kinase Ret
# T15 construct: P1378.pET-SF BI-PTP RET H661-R1012 HIS; made in house
# T15 sequence (P07949 with tags, fused parts or gaps): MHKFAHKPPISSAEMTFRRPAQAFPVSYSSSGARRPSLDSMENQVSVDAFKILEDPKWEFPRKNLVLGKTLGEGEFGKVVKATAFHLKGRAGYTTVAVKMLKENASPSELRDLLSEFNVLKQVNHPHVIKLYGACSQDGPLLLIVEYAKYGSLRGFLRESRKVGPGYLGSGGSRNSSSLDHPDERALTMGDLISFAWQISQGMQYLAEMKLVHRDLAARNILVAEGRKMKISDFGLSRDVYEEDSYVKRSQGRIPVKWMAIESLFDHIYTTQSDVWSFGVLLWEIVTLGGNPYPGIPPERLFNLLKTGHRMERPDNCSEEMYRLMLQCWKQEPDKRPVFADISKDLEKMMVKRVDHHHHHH
# [19] = target: T16, Flt1 (Homo sapiens, UniProt P17948); assay: AlphaScreen kinase assay, Flt1; conditions: read-out: IC50, activity toward kinase Flt1
# T16 construct: P1826.pETN6 BI-PTP FLT1 M799-D1165-X WT; His6 (N); made in house; host or cells: E. coli (PTP1B co-expressed)
# T16 sequence (P17948 with tags, fused parts or gaps): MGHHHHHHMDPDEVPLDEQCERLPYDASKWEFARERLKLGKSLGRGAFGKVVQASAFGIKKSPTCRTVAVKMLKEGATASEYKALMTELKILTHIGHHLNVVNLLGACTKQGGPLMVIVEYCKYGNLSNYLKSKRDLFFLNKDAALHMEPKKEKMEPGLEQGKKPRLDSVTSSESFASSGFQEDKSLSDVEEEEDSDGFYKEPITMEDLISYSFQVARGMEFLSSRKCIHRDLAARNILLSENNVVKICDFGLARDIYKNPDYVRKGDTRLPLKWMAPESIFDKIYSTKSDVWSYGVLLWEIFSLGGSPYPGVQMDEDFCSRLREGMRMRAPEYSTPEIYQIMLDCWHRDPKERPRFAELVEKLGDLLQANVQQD
# [20] = target: T17, Met (Homo sapiens, UniProt P08581); assay: AlphaScreen kinase assay, Met; conditions: read-out: IC50, activity toward kinase Met
# T17 construct: P1818.pETN6 BI-PTP MET G1056-G1364-X WT; His6 (N); made in house; host or cells: E. coli (PTP1B co-expressed)
# Method in brief: as §1
# [21] = target: T18, Kdr (Homo sapiens, UniProt P35968); assay: Z'-Lyte FRET kinase assay (Invitrogen), Kdr; conditions: read-out: IC50, activity toward kinase Kdr
# T18 construct: purchased Invitrogen (assay run by Invitrogen)
# [22] = target: T19, Stk6 (Homo sapiens, UniProt O14965); assay: Z'-Lyte FRET kinase assay (Invitrogen), Stk6; conditions: read-out: IC50, activity toward kinase Stk6
# T19 construct: purchased Invitrogen (Carlsbad, Calif.), screening service
# T19 sequence (O14965 1-403): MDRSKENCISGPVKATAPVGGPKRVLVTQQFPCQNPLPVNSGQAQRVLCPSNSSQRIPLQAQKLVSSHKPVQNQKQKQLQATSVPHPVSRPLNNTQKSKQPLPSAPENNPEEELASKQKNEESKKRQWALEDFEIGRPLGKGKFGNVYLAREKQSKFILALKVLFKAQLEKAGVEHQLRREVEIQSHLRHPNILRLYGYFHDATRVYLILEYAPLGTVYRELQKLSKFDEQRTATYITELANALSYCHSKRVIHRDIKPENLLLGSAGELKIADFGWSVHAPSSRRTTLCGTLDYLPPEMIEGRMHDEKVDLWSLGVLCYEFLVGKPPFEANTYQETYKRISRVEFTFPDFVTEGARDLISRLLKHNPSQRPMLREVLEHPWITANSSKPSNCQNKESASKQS
# [23] = target: T20, IKK beta (Homo sapiens, UniProt O14920); assay: AlphaScreen kinase assay, IKK beta; conditions: read-out: IC50, activity toward kinase IKK beta
# T20 sequence (O14920 1-756): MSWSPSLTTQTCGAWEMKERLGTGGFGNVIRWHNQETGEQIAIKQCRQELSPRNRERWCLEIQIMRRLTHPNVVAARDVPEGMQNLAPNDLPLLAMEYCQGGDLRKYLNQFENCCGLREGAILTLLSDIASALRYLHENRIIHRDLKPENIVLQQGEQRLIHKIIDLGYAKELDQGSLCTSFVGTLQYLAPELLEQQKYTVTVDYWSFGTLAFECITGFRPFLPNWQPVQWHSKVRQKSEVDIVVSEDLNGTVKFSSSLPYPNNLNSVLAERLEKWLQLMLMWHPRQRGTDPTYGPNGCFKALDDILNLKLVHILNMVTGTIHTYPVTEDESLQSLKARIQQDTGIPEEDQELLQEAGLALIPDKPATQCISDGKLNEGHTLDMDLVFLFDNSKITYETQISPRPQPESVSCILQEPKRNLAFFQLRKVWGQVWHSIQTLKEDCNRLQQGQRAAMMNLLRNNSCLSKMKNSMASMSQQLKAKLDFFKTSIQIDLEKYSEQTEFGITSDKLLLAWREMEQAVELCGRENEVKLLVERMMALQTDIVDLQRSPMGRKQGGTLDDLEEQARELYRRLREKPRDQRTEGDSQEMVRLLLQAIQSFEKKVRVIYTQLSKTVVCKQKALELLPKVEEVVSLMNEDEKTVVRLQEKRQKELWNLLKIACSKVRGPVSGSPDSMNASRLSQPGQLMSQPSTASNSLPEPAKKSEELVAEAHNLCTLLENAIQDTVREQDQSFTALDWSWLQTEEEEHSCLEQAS
SMILES,IC50 [1] [µM],IC50 [2] [µM],IC50 [3] [µM],IC50 [4] [µM],IC50 [5] [µM],IC50 [6] [µM],IC50 [7] [µM],IC50 [8] [µM],IC50 [9] [µM],IC50 [10] [µM],IC50 [11] [µM],IC50 [12] [µM],IC50 [13] [µM],IC50 [14] [µM],IC50 [15] [µM],IC50 [16] [µM],IC50 [18] [µM],IC50 [20] [µM],further results
"CS(=O)(=O)Nc1ccc(F)c(C(=O)c2c[nH]c3ncc(-c4cccnc4)cc23)c1F [Compound P-0700, N-[2,4-Difluoro-3-(5-pyridin-3-yl-1H-pyrrolo[2,3-b]pyridine-3-carbonyl)-phenyl]-methanesulfonamide]",≤ 10,≤ 10,≤ 10,≤ 10,≤ 10,–,≤ 10,≤ 10,≤ 10,≤ 10,≤ 10,≤ 10,≤ 10,–,≤ 10,–,≤ 10,≤ 10,IC50 [19]: ≤ 10 µM
"COc1ccc(F)c(C(=O)c2c[nH]c3ncc(-c4cccc(NC(C)=O)c4)cc23)c1F [Compound P-1390, N-{3-[3-(2,6-Difluoro-3-methoxy-benzoyl)-1H-pyrrolo[2,3-b]pyridin-5-yl]-phenyl}-acetamide]",≤ 10,≤ 10,≤ 10,≤ 10,≤ 10,≤ 10,≤ 10,≤ 10,–,≤ 10,–,–,≤ 10,≤ 10,–,–,–,–,–
CC(=O)Nc1cccc(-c2cnc3[nH]ccc3c2)c1 [Compound P-0115],–,–,–,–,–,–,–,≤ 10,–,–,–,–,≤ 10,–,–,≤ 10,≤ 10,–,IC50 [21]: ≤ 10 µM; IC50 [22]: ≤ 10 µM; IC50 [23]: ≤ 10 µM

# More lines, main results first:
IC50 [1] [µM],IC50 [2] [µM],IC50 [3] [µM],IC50 [4] [µM],IC50 [5] [µM],IC50 [6] [µM],IC50 [7] [µM],IC50 [8] [µM],IC50 [9] [µM],IC50 [10] [µM],IC50 [11] [µM],IC50 [12] [µM],IC50 [13] [µM],IC50 [14] [µM],IC50 [15] [µM],IC50 [16] [µM],IC50 [18] [µM],IC50 [20] [µM],SMILES,further results
≤ 10,≤ 10,≤ 10,≤ 10,≤ 10,≤ 10,≤ 10,≤ 10,≤ 10,≤ 10,≤ 10,≤ 10,≤ 10,–,–,–,–,–,"CC(C)S(=O)(=O)Nc1ccc(F)c(C(=O)c2c[nH]c3ncc(-c4cccnc4)cc23)c1F [Compound P-0850, propane-2-sulfonic acid [2,4-difluoro-3-(5-pyridin-3-yl-1H-pyrrolo[2,3-b]pyridin-3-carbonyl)-phenyl]-amide]",–
≤ 10,≤ 10,≤ 10,–,≤ 10,≤ 10,≤ 10,≤ 10,–,≤ 10,≤ 10,≤ 10,≤ 10,≤ 10,≤ 10,≤ 10,≤ 10,–,"CS(=O)(=O)Nc1ccc(F)c(C(=O)c2c[nH]c3ncc(-c4cccnc4)cc23)c1 [Compound P-0079, N-[4-Fluoro-3-(5-pyridin-3-yl-1H-pyrrolo[2,3-b]pyridine-3-carbonyl)-phenyl]-methanesulfonamide]",IC50 [17]: ≤ 10 µM
≤ 10,≤ 10,≤ 10,–,≤ 10,–,–,–,–,–,–,–,≤ 10,–,≤ 10,–,≤ 10,≤ 10,"CS(=O)(=O)Nc1cccc(-c2cnc3[nH]cc(C(=O)c4c(F)ccc(NS(C)(=O)=O)c4F)c3c2)c1 [Compound P-0746, N-{2,4-Difluoro-3-[5-(3-methanesulfonylamino-phenyl)-1H-pyrrolo[2,3-b]pyridine-3-carbonyl]-phenyl}-methanesulfonamide]",–
